As a reminder, the Papp is a coefficient for how fast a substance crosses the barrier. Lower therefore signals slow passage.

For 47 compounds, Papp results are on record in PubChem BioAssay AID1508612.

The nature of this data set: passive permeability, PAMPA, ADME assay (AID 1508612). To be noted: pH 7.4, 30.0 min, 50.0 µM.
Consider `Cc1cc(-c2nnc3n2CCCCC3)c(C)n1-c1cccnc1`, for which the apparent permeability coefficient (Papp) worked out at 49.2 ×10⁻⁶ cm/s. Take `Cc1ccc(-c2csc(Nc3ccc(S(=O)(=O)Nc4nccs4)cc3)n2)cc1C`: the apparent permeability (Papp) was 22 ×10⁻⁶ cm/s. Against the preceding compound, the Papp is about 2.2-fold lower. On to `CCOc1ccc(CCNC(=O)c2cc3sccc3n2CCN(C)C)cc1OCC`, for which the Papp was > 1000 ×10⁻⁶ cm/s. Consider `c1ccc2c(Nc3ccc4nc[nH]c4c3)nc(-c3ccncc3)nc2c1`, for which the apparent permeability (Papp) was found to be 16.7 ×10⁻⁶ cm/s. The compound `COc1ccc(CN2CCN(C(=O)c3cc4c(s3)CCC4)CC2)cc1` came in with an apparent permeability (Papp) of 997 ×10⁻⁶ cm/s. This Papp is about 60-fold higher than that of the compound before.

For the compound `Cc1ccc(C(=O)Nc2nc(-c3ccccn3)cs2)cc1S(=O)(=O)N1CCOCC1`, the apparent permeability coefficient (Papp) was 540 ×10⁻⁶ cm/s. In turn, `NC(=O)C1CCN(c2ncc(-c3ccc4c(c3)OCCO4)s2)CC1` registered a Papp of 710 ×10⁻⁶ cm/s. Turning to `Cc1ccc(NS(=O)(=O)c2c(C)[nH]c(C)c2C(=O)N2CCCC2)cc1Cl`, the Papp was determined as 387 ×10⁻⁶ cm/s. This Papp lies about 1.8-fold lower than the previous one. As to `O=C1CCCC2=C1C(c1ccccc1Cl)N=C(Nc1nc3ccccc3o1)N2` (configuration not stated), the Papp was > 1000 ×10⁻⁶ cm/s. For the compound `Cc1ccc(NC(=O)N2CCN(c3nc(N)nc4sc(-c5cccnc5)nc34)CC2)cc1`, the apparent permeability coefficient (Papp) stood at 577 ×10⁻⁶ cm/s. Take `Cc1ccc(C(N)=O)cc1Nc1nccc(-c2cn(C(C)C)c3cnccc23)n1`: the Papp amounted to 877 ×10⁻⁶ cm/s. In the case of `CC(C)Nc1oc(-c2cccc3ccccc23)nc1C#N`, the apparent permeability (Papp) is > 1000 ×10⁻⁶ cm/s. As to `COC(=O)CNC(=O)c1nc(-c2ccc([S+](C)(=O)[O-])cc2)c2cnccn12`, the Papp stood at 9.67 ×10⁻⁶ cm/s.

Turning to `CC(C)CCNC(=O)[C@H](CC(C)C)NC(=O)[C@H]1O[C@@H]1C(=O)O`, the apparent permeability coefficient (Papp) is < 1 ×10⁻⁶ cm/s.

Compound `CN1CCN(c2ccc(-c3cccc(CN4CCOCC4)c3)cc2NC(=O)c2c[nH]c(=O)cc2C(F)(F)F)CC1` gave a Papp of 3.88 ×10⁻⁶ cm/s. `Cc1cccc2c1NC(=O)/C2=C/c1cc(Cl)c(O)c(Cl)c1` had a Papp of 66.3 ×10⁻⁶ cm/s. This Papp lies about 17-fold higher than the previous one. On to `Cn1ccc2c(C(=O)NCc3cccnc3)nc(-c3ccccc3C#N)cc21`, for which the apparent permeability (Papp) stood at 732 ×10⁻⁶ cm/s. `COc1ccc(-c2cnc(N3CCC(C(N)=O)CC3)s2)cc1OC` came in with a Papp of 336 ×10⁻⁶ cm/s. On to `O=C(Nc1ccc(-c2ccccc2)cc1)[C@H](Cc1ccc(O[S+](=O)([O-])c2cccc3cnccc23)cc1)N[S+](=O)([O-])c1cccc2cnccc12`, for which the apparent permeability (Papp) came out at 18.5 ×10⁻⁶ cm/s. This Papp lies about 18-fold lower than the previous one. For `Fc1cc(Nc2nc(-c3ccncc3)nc3ccccc23)ccc1-c1cc(F)c(F)c(F)c1`, the Papp came to 21.1 ×10⁻⁶ cm/s. The figure for `COc1cccc(CNc2ccc(S(=O)(=O)Nc3nc(C)c(C)s3)cc2)c1O` is 25.8 ×10⁻⁶ cm/s; for `CCc1[nH]c2ccc(CNC(=O)Cc3cnc4c(C)cccn34)cc2c1C` it is 405 ×10⁻⁶ cm/s. `O=C(NCCc1ccc(OCC(F)(F)F)c(OCC(F)(F)F)c1)c1cc2sccc2n1Cc1ccccc1`: the Papp was determined as 24.5 ×10⁻⁶ cm/s. The same measure for `CCOc1ccc(CCNC(=O)c2cc3sccc3n2Cc2ccccn2)cc1OCC`: > 1000 ×10⁻⁶ cm/s; for `CCCN1C(CC(C)C)=NS(=O)(=O)c2cc(NC(=O)c3ccco3)ccc21`: 427 ×10⁻⁶ cm/s; for `Cc1ccnc(N=C(N)N2CCN(c3cccc(C(F)(F)F)c3)CC2)c1`: 383 ×10⁻⁶ cm/s.

The compound `COc1cccc(CNc2ccc(S(=O)(=O)Nc3ccc(N4CCNCC4)nc3)cc2)c1O` showed an apparent permeability coefficient (Papp) of 10.7 ×10⁻⁶ cm/s. The same measure for `CCCNC(=O)Nc1ccc(Oc2ncnc3cc(OC)c(OC)cc23)cc1Cl`: 362 ×10⁻⁶ cm/s; for `CC(=O)Nc1ccc(N[S+](=O)([O-])c2cccc(NC(=O)c3[nH]c(C)c(C(C)=O)c3C)c2)cc1`: 20.6 ×10⁻⁶ cm/s. As to `Cc1ccc(N(C)S(=O)(=O)c2ccc(-c3cnc(C4CC4)o3)cc2)cc1`, the Papp was > 1000 ×10⁻⁶ cm/s. Regarding `CC(C)N(CCC(=O)c1ccc2ccccc2c1)Cc1ccccc1`, the apparent permeability coefficient (Papp) was > 1000 ×10⁻⁶ cm/s. Take `CC(=O)Nc1cccc(-c2csc(Nc3cc(C)ccn3)n2)c1`: the Papp was > 1000 ×10⁻⁶ cm/s.

As to `O=[S+]([O-])(Nc1ccc(N2CCNCC2)cc1)c1ccc(NCc2cccc(Cl)c2O)cc1`, the Papp was determined as 7.65 ×10⁻⁶ cm/s.

`CCOC(=O)C1CCN(C(=O)C2(NC(=O)Nc3ccccc3Cl)CCCC2)CC1` yielded an apparent permeability (Papp) of 229 ×10⁻⁶ cm/s. Against the preceding compound, the Papp is about 30-fold higher. For `Cc1ccccc1NC(=O)Nc1cccs1`, the Papp turned out to be 106 ×10⁻⁶ cm/s.

With `CCCCOc1ccc(C(=O)N2CCC(c3n[nH]c(=O)n3-c3ccc(C)cc3)CC2)cc1`, the Papp was 892 ×10⁻⁶ cm/s. The figure for `O=C(O)c1ccc(Nc2nc(-c3cc4ccccc4oc3=O)cs2)cc1O` is 8.62 ×10⁻⁶ cm/s; for `FC(F)(F)Oc1cccc(Nc2nc(-c3ccncc3)nc3ccccc23)c1` it is 226 ×10⁻⁶ cm/s.

As for `Cc1cccc2c(C(=O)O)cc(-c3cccs3)nc12`, the apparent permeability (Papp) was 18.8 ×10⁻⁶ cm/s.

Regarding `O=C1CCCC2=C1C(c1[nH]ncc1Cl)N=C(Nc1nc3cc(F)ccc3o1)N2` (configuration not stated), the Papp turned out to be 647 ×10⁻⁶ cm/s.

In turn, `NC(=O)C1CCN(c2nc(-c3ccc(N4CCCCC4)nc3)cs2)CC1` came in with a Papp of 23.9 ×10⁻⁶ cm/s. Regarding `O=c1[nH]c(C2CCN(CC3CCCCC3)CC2)nn1Cc1ccccc1`, the Papp is < 1 ×10⁻⁶ cm/s.

Turning to `C[C@@H]1C(=O)O[C@H]2[C@H]1CC[C@@]1(C)Cc3sc(NS(=O)(=O)Cc4ccccc4)nc3[C@@H](C)[C@H]21`, the apparent permeability coefficient (Papp) is > 1000 ×10⁻⁶ cm/s. The same measure for `O=C(Nc1ccc(S(=O)(=O)Nc2nccs2)cc1)c1ccc2ccccc2c1`: 4.69 ×10⁻⁶ cm/s. For `Cc1csc2nc(-c3cccc(NC(=O)c4cccc(F)c4)c3)cn12`, the Papp is > 1000 ×10⁻⁶ cm/s.

`Cc1ccc(C2=NN=C(NC(=O)CSc3nncn3C)SC2)cc1` displayed an apparent permeability (Papp) of 147 ×10⁻⁶ cm/s. With `NC(=O)C1CCN(c2ncc(-c3ccc(Br)cc3)s2)CC1`, the Papp is 688 ×10⁻⁶ cm/s.
